Laboratory results published in PubChem BioAssay (NCI).
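1) Cells in 96-well plates. 2) Compound, 48 h, 5 concentrations. 3) Linear interpolation between surrounding doses. 4) Unreached endpoint = highest concentration. At the GI50, growth is halved. At the TGI there is no net growth.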

Tests used:
Assay in all cases: inhibition of tumour cell growth, NCI panel, 48 h
ACHN renal = test system: ACHN renal
HCT-116 colon = test system: HCT-116 colon
M14 melanoma = test system: M14 melanoma
NCI-H226 lung = test system: NCI-H226 lung
OVCAR-3 ovarian = test system: OVCAR-3 ovarian
SF-268 CNS = test system: SF-268 CNS
SK-MEL-2 melanoma = test system: SK-MEL-2 melanoma
SW-620 colon = test system: SW-620 colon
UACC-257 melanoma = test system: UACC-257 melanoma
UO-31 renal = test system: UO-31 renal

SMILES	GI50 (ACHN renal)	TGI (ACHN renal)	GI50 (HCT-116 colon)	TGI (HCT-116 colon)	GI50 (M14 melanoma)	TGI (M14 melanoma)	GI50 (NCI-H226 lung)	TGI (NCI-H226 lung)	GI50 (OVCAR-3 ovarian)	TGI (OVCAR-3 ovarian)	GI50 (SF-268 CNS)	TGI (SF-268 CNS)	GI50 (SK-MEL-2 melanoma)	TGI (SK-MEL-2 melanoma)	GI50 (SW-620 colon)	TGI (SW-620 colon)	GI50 (UACC-257 melanoma)	TGI (UACC-257 melanoma)	GI50 (UO-31 renal)	TGI (UO-31 renal)
O=C(Nc1ccccc1)Nc1cccc(Oc2nnc(Cl)c3ccccc23)c1	3.47 µM	18.7 µM	3.06 µM	9.77 µM	6.15 µM	> 25 µM	1.95 µM	9.25 µM	2.64 µM	5.97 µM	2.89 µM	7.57 µM	3.9 µM	13.2 µM	8.41 µM	> 25 µM	3.96 µM	> 25 µM	3.98 µM	19.6 µM
OCc1ccc(N(CCN2CCCC2)Cc2ccc(F)cc2)cc1Cl	21.8 µM	72.3 µM	13.4 µM	37.3 µM	14.3 µM	30.9 µM	1.39 µM	3.85 µM	19.5 µM	36.6 µM	21 µM	69 µM	17 µM	33 µM	16.7 µM	32.9 µM	14.7 µM	29 µM	13.8 µM	31.2 µM
O=c1c2cccnc2ncn1CCN1CCCC1	–	> 100 µM	–	> 100 µM	–	> 100 µM	–	> 100 µM	–	> 100 µM	–	> 100 µM	–	> 100 µM	–	> 100 µM	–	–	–	> 100 µM
c1ccc(COC2(OCc3ccccc3)CC3OC2C2NN=NC32)cc1 (stereo unspecified)	–	> 100 µM	–	–	–	39.4 µM	–	39.3 µM	–	33.8 µM	–	51 µM	–	> 10 µM	–	33.6 µM	–	36.2 µM	–	99.2 µM
Cc1ccc(Oc2ccc([N+](=O)[O-])cc2[N+](=O)[O-])c(C)c1	–	> 100 µM	–	> 100 µM	–	> 100 µM	–	> 100 µM	–	> 100 µM	–	–	–	> 100 µM	–	> 100 µM	–	99.6 µM	–	> 100 µM
Cc1cccc(C)c1NC(=O)CCc1n[nH]c(=S)o1	–	> 100 µM	–	36.7 µM	–	> 100 µM	–	> 100 µM	–	> 100 µM	–	> 100 µM	–	–	–	36.2 µM	–	> 100 µM	–	> 100 µM
C=C1C(=O)O[C@H]2[C@H]1CC/C(Cn1cc(-c3cc(C)c(C)cc3C)nn1)=C\CC[C@@]1(C)O[C@@H]21	1.07 µM	2.34 µM	0.336 µM	1.06 µM	1.5 µM	3.27 µM	1.46 µM	3.07 µM	1.03 µM	2.19 µM	1.52 µM	3.06 µM	1.75 µM	3.59 µM	0.424 µM	1.54 µM	–	–	0.528 µM	1.89 µM
S=c1nc(N2CCCCC2)ss1	–	67 µM	–	42.4 µM	–	47.7 µM	–	> 100 µM	–	–	–	49.5 µM	–	37.7 µM	–	72.4 µM	–	49.9 µM	–	39.6 µM
CC(C)c1ccc(NC(=S)NC(=O)c2ccccc2)cc1	–	55.9 µM	–	39.3 µM	–	40.7 µM	–	–	–	38.3 µM	–	46.4 µM	–	35.8 µM	–	62.8 µM	–	37.5 µM	–	32.7 µM
CC1C(=O)O[C@H]2C1CC[C@@]1(C)[C@H](O)CC[C@@]13C[C@]2(O)OO3 (stereo partly specified)	–	> 100 µM	–	> 100 µM	–	> 100 µM	–	> 100 µM	–	> 100 µM	–	> 100 µM	–	–	–	> 100 µM	–	> 100 µM	–	> 100 µM
